target: FGFR2 (Homo sapiens (Human), UniProt P21802); assay: FGFR2 Biochemical Caliper Assay
Procedure: Compounds of the present invention were also tested in a FGFR2 Biochemical Caliper Assay. Compounds were prepared in 10 mM DMSO solution and serially diluted into 11 concentrations by 3-fold dilution. […] 5 uL of ATP solution (100 uM) was added to start the reaction and the plate was incubated for 90 minutes, then 70 uL of stopping buffer (0.5M EDTA) was added to terminate the reaction. Each well was analyzed using EZ reader.

Chain of FGFR2 (P21802 22-821): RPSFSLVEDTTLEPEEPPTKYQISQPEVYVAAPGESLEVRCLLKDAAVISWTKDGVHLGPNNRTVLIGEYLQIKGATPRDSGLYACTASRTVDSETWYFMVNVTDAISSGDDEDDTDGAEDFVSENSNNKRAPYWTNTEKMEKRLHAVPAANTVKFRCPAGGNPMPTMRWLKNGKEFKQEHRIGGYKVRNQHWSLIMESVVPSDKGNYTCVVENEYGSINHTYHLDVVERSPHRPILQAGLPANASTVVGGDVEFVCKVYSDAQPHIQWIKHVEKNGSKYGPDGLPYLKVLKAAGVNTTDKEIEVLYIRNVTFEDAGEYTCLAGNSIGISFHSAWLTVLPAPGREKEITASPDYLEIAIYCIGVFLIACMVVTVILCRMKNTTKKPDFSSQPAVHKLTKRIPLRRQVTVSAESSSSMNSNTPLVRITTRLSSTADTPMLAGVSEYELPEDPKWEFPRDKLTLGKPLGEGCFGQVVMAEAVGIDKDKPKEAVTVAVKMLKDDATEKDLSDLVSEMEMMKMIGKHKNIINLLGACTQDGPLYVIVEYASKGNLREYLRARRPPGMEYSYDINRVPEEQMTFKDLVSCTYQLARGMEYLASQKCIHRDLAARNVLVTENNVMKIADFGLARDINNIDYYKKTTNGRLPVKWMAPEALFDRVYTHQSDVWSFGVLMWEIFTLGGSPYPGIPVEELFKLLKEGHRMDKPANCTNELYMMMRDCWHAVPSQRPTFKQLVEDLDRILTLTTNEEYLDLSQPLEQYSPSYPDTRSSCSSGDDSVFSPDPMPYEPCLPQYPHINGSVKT

IC50 | SMILES
< 100 nM | C=CC(=O)Nc1ccc(-c2c(-c3ccc(Nc4ncccn4)cc3)c3c(N)ncnc3n2C)cc1 [Example 58]
100 to 250 nM | C=C(C)C(=O)Nc1ccc(-c2c(-c3ccc(Nc4ncccn4)cc3)c3c(N)ncnc3n2C)cc1 [Example 59]
< 100 nM | C=CC(=O)Nc1ccc(-c2c(-c3ccc(N(C)c4ncccn4)cc3)c3c(N)ncnc3n2C)cc1 [Example 61]
1000 to 100000 nM | C=C(C)C(=O)Nc1ccc(-c2c(-c3ccc(N(C)c4ncccn4)cc3)c3c(N)ncnc3n2C)cc1 [Example 62]
1000 to 100000 nM | CCC(=O)Nc1ccc(-c2c(-c3ccc(Oc4ncccn4)cc3)c3c(N)ncnc3n2C)cc1 [Example 63]
1000 to 100000 nM | C=C(C)C(=O)Nc1ccc(-c2c(-c3ccc(Oc4ncc(CO)cn4)cc3)c3c(N)ncnc3n2C)cc1 [Example 64]
1000 to 100000 nM | C=C(C)C(=O)Nc1ccc(-c2c(-c3ccc(Oc4ncc(CO)cn4)c(OC)c3)c3c(N)ncnc3n2C)cc1 [Example 65]
1000 to 100000 nM | CCC(=O)Nc1ccc(-c2c(-c3ccc(Oc4cccc(C)n4)c(OC)c3)c3c(N)ncnc3n2C)cc1 [Example 66]
1000 to 100000 nM | CCC(=O)Nc1ccc(-c2c(-c3ccc(Oc4ccccn4)c(OC)c3)c3c(N)ncnc3n2C)cc1 [Example 67]
< 100 nM | C=CC(=O)Nc1ccc(-c2c(-c3ccc(Sc4ncccn4)cc3)c3c(N)ncnc3n2C)cc1 [Example 68]
250 to 1000 nM | C=CC(=O)Nc1ccc(-c2c(-c3ccc(Oc4ncccn4)c(CO)c3)c3c(N)ncnc3n2C)cc1 [Example 71]
250 to 1000 nM | C/C=C/C(=O)Nc1ccc(-c2c(-c3cccc(OC)c3)c3c(N)ncnc3n2C)cc1 [Example 72]
100 to 250 nM | CC#CC(=O)Nc1ccc(-c2c(-c3cccc(OC)c3)c3c(N)ncnc3n2C)cc1 [Example 73]
250 to 1000 nM | C=CC(=O)Nc1ccc(-c2c(C3=CCN(C(=O)C(F)(F)F)CC3)c3c(N)ncnc3n2C)cc1 [Example 74]
100 to 250 nM | C=CC(=O)Nc1ccc(-c2c(-c3ccccc3)c3c(N)ncnc3n2C)cc1 [Example 76]
100 to 250 nM | C=C(C)C(=O)Nc1ccc(-c2c(-c3ccc(Oc4cccc(C)n4)cc3)c3c(N)ncnc3n2CCN2CCOCC2)cc1 [Example 79]
100 to 250 nM | C=C(C)C(=O)Nc1ccc(-c2c(-c3ccc(Oc4cccc(C)n4)cc3)c3c(N)ncnc3n2CCN(C)C)cc1 [Example 80]
< 100 nM | C=CC(=O)Nc1ccc(-c2c(-c3ccc(C(=O)c4ccccc4C)c(OC)c3)c3c(N)ncnc3n2C)cc1 [Example 81]
< 100 nM | C=CC(=O)Nc1ccc(-c2c(-c3ccc(Sc4ncccn4)c(OC)c3)c3c(N)ncnc3n2C)cc1 [Example 82]
< 100 nM | CC#CC(=O)Nc1ccc(-c2c(-c3ccc(Oc4ncccn4)cc3)c3c(N)ncnc3n2C)cc1 [Example 84]
100 to 250 nM | C=C(C)C(=O)Nc1ccc(-c2c(-c3ccc(S(=O)(=O)N4CCCC4)cc3)c3c(N)ncnc3n2C)cc1 [Example 85]
< 100 nM | C=CC(=O)Nc1ccc(-c2c(-c3ccc(Oc4ncc(N)cn4)c(OC)c3)c3c(N)ncnc3n2C)cc1 [Example 87]
100 to 250 nM | C=C(C)C(=O)Nc1ccc(-c2c(-c3ccc(Oc4cccc(C)n4)cc3)c3c(N)ncnc3n2C2CCOCC2)cc1 [Example 88]

IC50 | SMILES
< 100 nM | C=C(C)C(=O)Nc1ccc(-c2c(-c3ccc(Oc4cccc(C)n4)cc3)c3c(N)ncnc3n2CCN2CCN(C)CC2)cc1 [Example 89]
1000 to 100000 nM | C=C(C)C(=O)Nc1ccc(-c2c(-c3ccc(Oc4cnc(C)cn4)c(F)c3)c3c(N)ncnc3n2C)cc1 [Example 92]
250 to 1000 nM | C=C(C)C(=O)Nc1ccc(-c2c(-c3ccc(C(O)c4ncccn4)c(OC)c3)c3c(N)ncnc3n2C)cc1 (centres unmarked) [Example 93]
250 to 1000 nM | C=C(C)C(=O)Nc1ccc(-c2c(-c3ccc(Oc4ccc(Cl)cn4)cc3)c3c(N)ncnc3n2C)cc1 [Example 97]
1000 to 100000 nM | C=CC(=O)Nc1ccc(-c2c(C3CCN(C)CC3)c3c(N)ncnc3n2C)cc1 [Example 99]
100 to 250 nM | C=C(C)C(=O)Nc1ccc(-c2c(-c3ccc(Oc4ncc(Cl)cn4)c(OC)c3)c3c(N)ncnc3n2C)cc1 [Example 102]
1000 to 100000 nM | C=CC(=O)Nc1ccc(-c2c(C3CCN(C(=O)CNC(=O)NC)CC3)c3c(N)ncnc3n2C)cc1 [Example 104]
250 to 1000 nM | C=CC(=O)Nc1ccc(-c2c(C3CCN(C(=O)C(C)CCNC)CC3)c3c(N)ncnc3n2C)cc1 (centres unmarked) [Example 105]
1000 to 100000 nM | C=C(C)C(=O)Nc1ccc(-c2c(-c3ccc(Cc4ncccn4)c(OC)c3)c3c(N)ncnc3n2C)cc1 [Example 106]
250 to 1000 nM | C=C(C)C(=O)Nc1ccc(-c2c(-c3cc(F)c(Oc4ccccn4)c(F)c3)c3c(N)ncnc3n2C)cc1 [Example 107]
1000 to 100000 nM | C=C(C)C(=O)Nc1ccc(-c2c(-c3ccc(Oc4ccc(C)cn4)c(O)c3)c3c(N)ncnc3n2C)cc1 [Example 108]
100 to 250 nM | C=C(C)C(=O)Nc1ccc(-c2c(-c3ccc(Oc4ncc(F)cn4)c(C)c3)c3c(N)ncnc3n2C)cc1 [Example 109]
1000 to 100000 nM | C=C(C)C(=O)Nc1ccc(-c2c(-c3ccc(Oc4ccc(F)cn4)c(O)c3)c3c(N)ncnc3n2C)cc1 [Example 111]
1000 to 100000 nM | C=C(C)C(=O)Nc1ccc(-c2c(-c3ccc(Oc4ccc(F)nc4)c(O)c3)c3c(N)ncnc3n2C)cc1 [Example 112]
250 to 1000 nM | C=C(C)C(=O)Nc1ccc(-c2c(-c3ccc(Oc4ncc(Cl)cn4)c(F)c3)c3c(N)ncnc3n2C)cc1 [Example 115]
1000 to 100000 nM | C=C(C)C(=O)Nc1ccc(-c2c(-c3cc(F)c(Oc4cnccn4)c(F)c3)c3c(N)ncnc3n2C)cc1 [Example 118]
1000 to 100000 nM | C=C(C)C(=O)Nc1ccc(-c2c(-c3ccc(Oc4ccc(Cl)cn4)c(O)c3)c3c(N)ncnc3n2C)cc1 [Example 119]
250 to 1000 nM | C=C(C)C(=O)Nc1ccc(-c2c(-c3ccc(Oc4ccc(Cl)c(C)n4)cc3)c3c(N)ncnc3n2C)cc1 [Example 122]
1000 to 100000 nM | C=C(C)C(=O)Nc1ccc(-c2c(-c3ccc(OCC(=O)O)cc3)c3c(N)ncnc3n2C)cc1 [Example 124]
1000 to 100000 nM | C=C(C)C(=O)Nc1ccc(-c2c(-c3ccc4c(c3)CC(=O)N4)c3c(N)ncnc3n2C)cc1 [Example 125]
1000 to 100000 nM | C=C(C)C(=O)Nc1ccc(-c2c(-c3cnn(Cc4cccnc4)c3)c3c(N)ncnc3n2C)cc1 [Example 126]
100 to 250 nM | C=C(C)C(=O)Nc1ccc(-c2c(-c3cc(N)c(Oc4ccccn4)c(F)c3)c3c(N)ncnc3n2C)cc1 [Example 127]
250 to 1000 nM | C=C(C)C(=O)Nc1ccc(-c2c(-c3cc(C)c(Oc4ccccn4)c(O)c3)c3c(N)ncnc3n2C)cc1 [Example 129]

IC50 | SMILES
1000 to 100000 nM | C=C(C)C(=O)Nc1ccc(-c2c(-c3ccc(CC(=O)N(C)C)cc3)c3c(N)ncnc3n2C)cc1 [Example 130]
1000 to 100000 nM | C=C(C)C(=O)Nc1ccc(-c2c(-c3ccc(N(C)C)nc3)c3c(N)ncnc3n2C)cc1 [Example 131]
1000 to 100000 nM | C=C(C)C(=O)Nc1ccc(-c2c(-c3ccc(-c4nnn(C)n4)nc3)c3c(N)ncnc3n2C)cc1 [Example 132]
100 to 250 nM | C=C(C)C(=O)Nc1ccc(-c2c(-c3ccc(OCC4CC4)cc3)c3c(N)ncnc3n2C)cc1 [Example 133]
1000 to 100000 nM | C=C(C)C(=O)Nc1ccc(-c2c(-c3cncc(CO)c3)c3c(N)ncnc3n2C)cc1 [Example 134]
1000 to 100000 nM | C=C(C)C(=O)Nc1ccc(-c2c(C3=CCCN(C(C)=O)C3)c3c(N)ncnc3n2C)cc1 [Example 136]
1000 to 100000 nM | C=C(C)C(=O)Nc1ccc(-c2c(-c3ccc(OCc4ccccc4)nc3)c3c(N)ncnc3n2C)cc1 [Example 138]
1000 to 100000 nM | C=C(C)C(=O)Nc1ccc(-c2c(-c3cc(OC)ncc3F)c3c(N)ncnc3n2C)cc1 [Example 139]
1000 to 100000 nM | C=C(C)C(=O)Nc1ccc(-c2c(-c3ccc(C(=O)N4CCC(F)(F)CC4)cc3)c3c(N)ncnc3n2C)cc1 [Example 142]
1000 to 100000 nM | C=C(C)C(=O)Nc1ccc(-c2c(-c3cc(OC)ncc3OC)c3c(N)ncnc3n2C)cc1 [Example 144]
1000 to 100000 nM | C=C(C)C(=O)Nc1ccc(-c2c(-c3ccc(CN4CC[C@@H](O)C4)cc3)c3c(N)ncnc3n2C)cc1 [Example 146]
1000 to 100000 nM | C=C(C)C(=O)Nc1ccc(-c2c(-c3ccc4c(c3)CCC(=O)N4)c3c(N)ncnc3n2C)cc1 [Example 147]
250 to 1000 nM | C=C(C)C(=O)Nc1ccc(-c2c(-c3ccc(-c4ncc[nH]4)cc3)c3c(N)ncnc3n2C)cc1 [Example 149]
250 to 1000 nM | C=CC(=O)Nc1ccc(-c2c(-c3cnn(CC4CCNCC4)c3)c3c(N)ncnc3n2C)cc1 [Example 151]
1000 to 100000 nM | C=C(C)C(=O)Nc1ccc(-c2c(-c3ccn4ccnc4c3)c3c(N)ncnc3n2C)cc1 [Example 153]
1000 to 100000 nM | C=C(C)C(=O)Nc1ccc(-c2c(-c3ccc(Cn4cc(C)cn4)c(F)c3)c3c(N)ncnc3n2C)cc1 [Example 158]
1000 to 100000 nM | C=C(C)C(=O)Nc1ccc(-c2c(-c3ccc(CN4CCC(F)(F)CC4)c(F)c3)c3c(N)ncnc3n2C)cc1 [Example 159]
250 to 1000 nM | C=C(C)C(=O)Nc1ccc(-c2c(-c3cc(O)c(Oc4ccccn4)c(Cl)c3)c3c(N)ncnc3n2C)cc1 [Example 162]
1000 to 100000 nM | C=C(C)C(=O)Nc1ccc(-c2c(-c3cnn(C4CN(C)C4)c3)c3c(N)ncnc3n2C)cc1 [Example 163]
100 to 250 nM | C=C(C)C(=O)Nc1ccc(-c2c(-c3ccc4cn(C)nc4c3)c3c(N)ncnc3n2C)cc1 [Example 164]
250 to 1000 nM | C=C(C)C(=O)Nc1ccc(-c2c(-c3ccc(-n4cc(C)cn4)nc3)c3c(N)ncnc3n2C)cc1 [Example 165]
250 to 1000 nM | C=C(C)C(=O)Nc1ccc(-c2c(-c3ccc4c(cnn4C(C)C)c3)c3c(N)ncnc3n2C)cc1 [Example 170]
1000 to 100000 nM | C=C(C)C(=O)Nc1ccc(-c2c(-c3ccc(CN4CCN(C)CC4)cc3)c3c(N)ncnc3n2C)cc1 [Example 172]

SMILES | IC50
C=CC(=O)Nc1ccc(-c2c(C3=CCNCC3)c3c(N)ncnc3n2C)cc1 [Example 75] | 250 to 1000 nM
C=C(C)C(=O)Nc1ccc(-c2c(C3=CC4CCC(C3)N4)c3c(N)ncnc3n2C)cc1 (centres unmarked) [Example 168] | 100 to 250 nM
